Measurements taken from US8551958B2, “Galactosylated pro-drugs of non-steroidal anti-inflammatories with improved pharmacokinetic characteristics and reduced toxicity of the starting drug” (Stewart Italia Srl, priority 2008, dated 2013).
Entries after “also recorded” stand apart in the source; their conditions may differ.

Columns and labels:
[1] = Enzymatic stability in plasma, HPLC; type: in vitro ADME; details: plasma specimen, 37° C., in the dark; read-out: Plasma T½ (converted)
Procedure: For the stability study, the solutions of pro-drug were prepared by dissolving an aliquot of Ketogal in a phosphate buffer at pH 7.4, or else in a solution of HCl 0.1 N (pH 1), as regards chemical stability, or else in a plasma specimen, for enzymatic stability. The solutions were kept in the dark, at a temperature of 37° C., for 24 hours. After each hour an aliquot of specimen was taken. In the case of plasma, said aliquot was previously extracted with acetonitrile (1:2), “vortexed” and centrifuged at 3000 r.p.m. for 10 min. The supernatant was taken and used for analysis at HPLC with diode detector. The half-lives for chemical stability and enzymatic stability were calculated by quantizing, in time, the percentage of pro-drug that remained in solution. For the chromatographic separations, a 1090L HPLC (Hewlett-Packard, Palo Alto, USA) was used, coupled to a diode detector HP 1040A. A Phenomenex Luna C18 (250×4.6 mm, 5 μm) column was used. The wavelength used was 313 nm. The mobile phase was constituted by acetonitrile and an aqueous solution of phosphoric acid […] (pH 3) in the ratio of 68:32. The flow was 1 mL/min, with an injection volume of 20 μl. All the reagents and the solvents used were of analytical degree. The distilled and deionized water was purified by means of a Milli Q system (Millipore). […] The straight line of calibration for quantification of the compounds was constructed using standard solutions with concentrations of between 0.1 and 100 μg/ml. […]
For the study of the stability, the solutions of pro-drug were prepared by dissolving an aliquot of Flugal in a phosphate buffer at pH 7.4, as regards chemical stability, or else in a plasma specimen, for enzymatic stability. […] The half-lives for the chemical stability and enzymatic stability were calculated by quantizing, in time, the percentage of pro-drug that remained in solution. […] For the quantitative determination reading was made at 250 nm. […] The straight line of calibration for the quantification of the compounds was constructed using standard solutions with concentrations of between 0.1 and 100 μg/ml. […]

male Swiss mice = test: Ulcerogenicity studies, ketorolac and Ketogal (gastric lesions); type: in vivo; details: oral, Ketogal 16.3 mg/kg
Procedure: The gastric lesions were evaluated in male Swiss mice. To the fasted animals (16-18 h) were administered, by oral route, ketorolac (10 mg/kg), Ketogal (16.3 mg/kg), or the vehicle. After 4 hours, the mice were sacrificed and the stomach removed, cut along the major curvature, washed with physiological solution, and the mucous was examined for evaluation of the presence of petechias and/or gastric lesions. A “score” of 1 was assigned to the petechias, and a “score” based on the diameter (a “score” of 5 for lesions of a diameter of less than 1 mm; a “score” of 10 for lesions with a diameter of more than 1 mm) was, instead, assigned to the lesions.

[2] = Pharmacokinetic studies (plasma, stomach, kidney, liver); type: in vivo, Wistar rats
Procedure: The pharmacokinetic profile of Ketogal and of ketorolac was evaluated in Wistar rats by measuring the concentration of the two compounds in the plasma, in the stomach, in the kidney, and in the liver. The rats received ketorolac (0.100 mg/kg) or Ketogal (0.163 mg/kg) by oral route and were sacrificed after 1 h, 2 h, 4 h, and 6 h from administration. The various specimens were treated with acetonitrile, and the suspension was “vortexed” and centrifuged at 3000 r.p.m. for 10 min. The organic phase was injected in the same HPLC system used for the stability assays.

[3] = tested on: writhing induced by acetic acid; test: Writhing test induced by acetic acid; type: in vivo, mice
Procedure: The analgesic activity was studied using the “writhing test” using acetic acid and using magnesium sulphate. To the mice there was administered by intraperitoneal route 1 mL of solution at 1% of acetic acid, and the number of writhing events was evaluated for 20 min, after 5 min from administration of the solution of acetic acid. Writhing is defined as a contraction of the abdominal muscles accompanied by elongation of the body and of the rear legs. Ketorolac and Ketogal were administered by oral route 60 min prior to administration of the solution of acetic acid. The analgesic effect is expressed in number of writhing events as compared to the control.

IL-6 = test: Western blot in liver lysates, IL-6; type: in vivo, mice; details: ketogal 16.3 mg/Kg oral for 3, 5 and 7 days
Procedure: (§1) Animals were sacrificed and then liver, stomach and kidney were collected in glass tubes and analysed histologically and biochemically.
(§2) Liver samples were fixed in 10% buffered formalin and embedded in paraffin, sliced, and stained with hematoxylin & eosin (H&E) for assessment of liver pathology. […] To confirm histological data, western blot analysis for TNF-alpha, IL-6 and malonyldialdehyde assay were then performed in liver lysates.

lipid peroxidation = test: Malonyldialdehyde assay in liver lysates; type: in vivo, mice; details: ketogal 16.3 mg/Kg oral for 3, 5 and 7 days
Procedure: as §1, §2

half-life [1]: 1.5 h
Presence of the pro-drug in plasma ([2]; oral, Ketogal 0.163 mg/kg): the pro-drug was not present
Presence of the pro-drug in the kidney ([2]; oral, Ketogal 0.163 mg/kg): no traces of the pro-drug
Presence of the pro-drug in the liver ([2]; oral, Ketogal 0.163 mg/kg): Ketogal reappeared
IL-6 level in liver (IL-6): no different compared to control mice
Lipid peroxidation level in liver (malonyldialdehyde) (lipid peroxidation): no different compared to control mice
SMILES: O=C(c1ccccc1)c1ccc2n1CC[C@@H]2C(=O)OCC1O[C@H](O)C(O)C(O)[C@H]1O (mixture of isomers) [Ketogal, ketorolac-D-galactos-6′-yl ester]
Gastrolesive properties (in words) (male Swiss mice; equimolar to ketorolac 10 mg/kg): does not cause ulcers; also recorded: only a slight irritation of the gastric mucosa, with an almost total absence of ulcers
Degree of ulcerogenicity (male Swiss mice; ketorolac 10.0 mg/kg, after 4 hours, score 1 petechias, 5 or 10 lesions): 1
Number of ulcers (male Swiss mice; ketorolac 10.0 mg/kg, fasted mice, after 4 hours): 1 ± 0.4
Oral availability ([2]; compared with ketorolac): better oral availability than ketorolac; also recorded: increased the oral availability of ketorolac
Behaviour of the pro-drug in the stomach ([2]; oral, Ketogal 0.163 mg/kg): hydrolyses progressively, releasing ketorolac
Concentration of ketorolac in the liver after Ketogal versus drug alone ([2]; oral, Ketogal 0.163 mg/kg versus ketorolac 0.100 mg/kg): always higher following upon administration of Ketogal
Plasma levels of ketorolac after administration of Ketogal versus ketorolac as such ([2]; oral, Ketogal 0.163 mg/kg, ketorolac 0.100 mg/kg, 1 h, 2 h, 4 h, 6 h): higher than the ones observed following upon administration of the drug as such
Analgesic activity compared with ketorolac ([3]; Ketogal 0.163 mg/kg versus ketorolac 0.1 mg/kg, oral and subcutaneous administration): better analgesic and anti-inflammatory activity than ketorolac
Analgesic effect (number of writhing events compared to control) ([3]; oral, 60 min prior to acetic acid, ketorolac 0.01-10 mg/kg, Ketogal 0.0163-16.3 mg/kg): dose-dependent analgesic effect of higher than 0.163 mg/kg
